# Assay results from ChEMBL document CHEMBL3797052 (Eur J Med Chem, 2016).
# Columns and labels:
# [1] = Antiproliferative activity against human OVCAR4 cells assessed as cell growth at 10^-4 M after 48 hrs by sulforhodamine B assay; assay type: functional; settings: OVCAR-4, 48 h, read-out: Activity
# [2] = Antiproliferative activity against human LOXIMVI cells assessed as cell growth at 10^-7 M after 48 hrs by sulforhodamine B assay; assay type: functional; settings: LOX IMVI, read-out: Activity
# A498 = assay: Antiproliferative activity against human A498 cells assessed as cell growth at 10^-7 M after 48 hrs by sulforhodamine B assay; assay type: functional; settings: A498, 48 h, read-out: Activity
# 786-0 [3] = assay: Antiproliferative activity against human 786-0 cells assessed as cell growth at 10^-6 M after 48 hrs by sulforhodamine B assay; assay type: functional; settings: 786-0, 48 h, read-out: Activity
# [4] = Antiproliferative activity against human HCT116 cells assessed as cell growth at 10^-8 M after 48 hrs by sulforhodamine B assay; assay type: functional; settings: HCT-116, 48 h, read-out: Activity
# A549 [5] = assay: Antiproliferative activity against human A549/ATCC cells assessed as cell growth at 10^-8 M after 48 hrs by sulforhodamine B assay; assay type: functional; settings: A549, 48 h, read-out: Activity
# NCI-H522 = assay: Antiproliferative activity against human NCI-H522 cells assessed as cell growth at 10^-7 M after 48 hrs by sulforhodamine B assay; assay type: functional; settings: NCI-H522, 48 h, read-out: Activity
# [6] = Antiproliferative activity against human TK10 cells assessed as cell growth at 10^-7 M after 48 hrs by sulforhodamine B assay; assay type: functional; settings: TK-10, 48 h, read-out: Activity
# KM12 = assay: Antiproliferative activity against human KM12 cells assessed as growth inhibition after 48 hrs by sulforhodamine B assay; assay type: functional; settings: KM12, 48 h
# Malme-3M = assay: Antiproliferative activity against human MALME-3M cells assessed as cell growth at 10^-6 M after 48 hrs by sulforhodamine B assay; assay type: functional; settings: read-out: Activity
# [7] = Antiproliferative activity against human BT549 cells assessed as cell growth at 10^-7 M after 48 hrs by sulforhodamine B assay; assay type: functional; settings: BT-549, 48 h, read-out: Activity
# 786-0 [8] = assay: Antiproliferative activity against human 786-0 cells assessed as growth inhibition after 48 hrs by sulforhodamine B assay; assay type: functional; settings: 786-0, 48 h
# CYP2C19 = CYP2C19 (Homo sapiens, UniProt P33261); assay: Inhibition of recombinant human CYP2C19 assessed as remaining enzyme activity at 10 uM after 5 mins in presence of NADP by fluorescence plate reader analysis; assay type: ADME; settings: read-out: Activity
# K562 = assay: Antiproliferative activity against human K562 cells assessed as cell growth at 10^-8 M after 48 hrs by sulforhodamine B assay; assay type: functional; settings: K562, 48 h, read-out: Activity
# [9] = Antiproliferative activity against human OVCAR4 cells assessed as cell growth at 10^-8 M after 48 hrs by sulforhodamine B assay; assay type: functional; settings: OVCAR-4, 48 h, read-out: Activity
# MDA-MB-468 [10] = assay: Antiproliferative activity against human MDA-MB-468 cells assessed as cell growth at 10^-7 M after 48 hrs by sulforhodamine B assay; assay type: functional; settings: MDA-MB-468, 48 h, read-out: Activity
# ACHN = assay: Antiproliferative activity against human ACHN cells assessed as cell growth at 10^-4 M after 48 hrs by sulforhodamine B assay; assay type: functional; settings: read-out: Activity
# CCRF-CEM = assay: Antiproliferative activity against human CCRF-CEM cells assessed as cell growth at 10^-4 M after 48 hrs by sulforhodamine B assay; assay type: functional; settings: read-out: Activity
# HT-29 = assay: Antiproliferative activity against human HT-29 cells assessed as cell growth at 10^-6 M after 48 hrs by sulforhodamine B assay; assay type: functional; settings: HT-29, 48 h, read-out: Activity
# [11] = Antiproliferative activity against human SNB19 cells assessed as cell growth at 10^-4 M after 48 hrs by sulforhodamine B assay; assay type: functional; settings: SNB-19, 48 h, read-out: Activity
# A549 [12] = assay: Antiproliferative activity against human A549/ATCC cells assessed as cell growth at […] after 48 hrs by sulforhodamine B assay; assay type: functional; settings: A549, 48 h, read-out: Activity
# [13] = Antiproliferative activity against human MOLT4 cells assessed as growth inhibition after 48 hrs by sulforhodamine B assay; assay type: functional; settings: MOLT-4, 48 h
# MDA-MB-468 [14] = assay: Antiproliferative activity against human MDA-MB-468 cells assessed as cell growth at […] after 48 hrs by sulforhodamine B assay; assay type: functional; settings: MDA-MB-468, 48 h, read-out: Activity
# [15] = Antiproliferative activity against human HCC2998 cells assessed as growth inhibition after 48 hrs by sulforhodamine B assay; assay type: functional; settings: HCC 2998, 48 h; for CC50: read-out: LC50 (the source's name)
# SK-MEL-5 = assay: Antiproliferative activity against human SK-MEL-5 cells assessed as growth inhibition after 48 hrs by sulforhodamine B assay; assay type: functional; settings: SK-MEL-5, 48 h; for CC50: read-out: LC50 (the source's name)
# [16] = Antiproliferative activity against human UACC62 cells assessed as cell growth at 10^-8 M after 48 hrs by sulforhodamine B assay; assay type: functional; settings: UACC-62, 48 h, read-out: Activity
# NCI-H226 = assay: Antiproliferative activity against human NCI-H226 cells assessed as cell growth at 10^-6 M after 48 hrs by sulforhodamine B assay; assay type: functional; settings: NCI-H226, 48 h, read-out: Activity
# [17] = Antiproliferative activity against human SNB19 cells assessed as cell growth at 10^-7 M after 48 hrs by sulforhodamine B assay; assay type: functional; settings: SNB-19, 48 h, read-out: Activity
# [18] = Antiproliferative activity against human PC3 cells assessed as growth inhibition after 48 hrs by sulforhodamine B assay; assay type: functional; settings: PC-3, 48 h
# MDA-MB-231 = assay: Antiproliferative activity against human MDA-MB-231 cells assessed as cell growth at 10^-6 M after 48 hrs by sulforhodamine B assay; assay type: functional; settings: MDA-MB-231, 48 h, read-out: Activity
# T47D = assay: Antiproliferative activity against human T47D cells assessed as cell growth at 10^-7 M after 48 hrs by sulforhodamine B assay; assay type: functional; settings: read-out: Activity
# [19] = Antiproliferative activity against human PC3 cells assessed as cell growth at 10^-6 M after 48 hrs by sulforhodamine B assay; assay type: functional; settings: PC-3, 48 h, read-out: Activity
# [20] = Antiproliferative activity against human SF268 cells assessed as growth inhibition after 48 hrs by sulforhodamine B assay; assay type: functional; settings: SF-268, 48 h
# [21] = Antiproliferative activity against human SF268 cells assessed as cell growth at 10^-7 M after 48 hrs by sulforhodamine B assay; assay type: functional; settings: SF-268, 48 h, read-out: Activity
# [22] = Antiproliferative activity against human MOLT4 cells assessed as cell growth at 10^-7 M after 48 hrs by sulforhodamine B assay; assay type: functional; settings: MOLT-4, 48 h, read-out: Activity
# [23] = Antiproliferative activity against human HOP92 cells assessed as growth inhibition after 48 hrs by sulforhodamine B assay; assay type: functional; settings: HOP-92, 48 h
# CYP2C19, sequence (P33261 whole entry): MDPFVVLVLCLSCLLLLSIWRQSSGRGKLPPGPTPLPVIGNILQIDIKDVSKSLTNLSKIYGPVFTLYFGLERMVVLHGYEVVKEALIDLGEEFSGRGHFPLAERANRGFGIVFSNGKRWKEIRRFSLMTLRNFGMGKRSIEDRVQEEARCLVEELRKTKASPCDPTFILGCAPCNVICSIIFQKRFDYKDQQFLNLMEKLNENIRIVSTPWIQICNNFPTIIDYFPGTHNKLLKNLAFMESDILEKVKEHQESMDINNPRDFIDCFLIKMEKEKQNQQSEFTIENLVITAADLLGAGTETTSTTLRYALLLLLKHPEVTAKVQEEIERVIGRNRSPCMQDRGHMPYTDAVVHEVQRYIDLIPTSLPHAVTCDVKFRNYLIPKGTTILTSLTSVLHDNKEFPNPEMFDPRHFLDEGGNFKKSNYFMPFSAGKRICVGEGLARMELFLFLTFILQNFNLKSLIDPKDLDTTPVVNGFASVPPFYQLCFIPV
structure (smiles),measurement,setting,value
CNC(=O)c1cc(Oc2ccc3nc(NC(=O)Nc4ccc(Cl)c(Cl)c4)sc3c2)ccn1,growth at 100 µM,[1],-68%
same,growth at 0.1 µM,[2],93%
same,growth at 0.1 µM,A498,110%
same,growth at 1 µM,786-0 [3],100%
same,growth at 0.01 µM,[4],94%
same,growth at 0.01 µM,A549 [5],98%
same,growth at 0.1 µM,NCI-H522,100%
same,growth at 0.1 µM,[6],112%
same,GI50,KM12,3 µM
same,LC50,KM12,> 100 µM
same,TGI,KM12,> 100 µM
same,growth at 1 µM,Malme-3M,76%
same,growth at 0.1 µM,[7],104%
same,GI50,786-0 [8],2.26 µM
same,LC50,786-0 [8],21.5 µM
same,TGI,786-0 [8],5.11 µM
same,"activity at 5 min, 10 µM",CYP2C19,83.6%
same,growth at 0.01 µM,K562,99%
same,growth at 0.01 µM,[9],93%
same,growth at 0.1 µM,MDA-MB-468 [10],91%
same,growth at 100 µM,ACHN,-18%
same,growth at 100 µM,CCRF-CEM,79%
same,growth at 1 µM,HT-29,106%
same,growth at 100 µM,[11],-74%
same,growth at 0.1 µM,A549 [12],96%
same,GI50,[13],> 100 µM
same,LC50,[13],> 100 µM
same,TGI,[13],> 100 µM
same,growth at 0.01 µM,MDA-MB-468 [14],94%
same,GI50,[15],5.04 µM
same,TGI,[15],> 100 µM
same,CC50,[15],> 100 µM
same,GI50,SK-MEL-5,2.24 µM
same,TGI,SK-MEL-5,5.58 µM
same,CC50,SK-MEL-5,> 100 µM
same,growth at 0.01 µM,[16],98%
same,growth at 1 µM,NCI-H226,109%
same,growth at 0.1 µM,[17],110%
same,GI50,[18],1.95 µM
same,TGI,[18],4.33 µM
same,growth at 1 µM,MDA-MB-231,85%
same,growth at 0.1 µM,T47D,106%
same,growth at 1 µM,[19],92%
same,GI50,[20],1.98 µM
same,LC50 (concentration killing 50% of cells),[20],8.97 µM
same,TGI,[20],4.21 µM
same,growth at 0.1 µM,[21],99%
same,growth at 0.1 µM,[22],96%
same,GI50,[23],2.66 µM
same,LC50,[23],18.8 µM
same,TGI,[23],5.39 µM
CNC(=O)c1cc(Oc2ccc3nc(NC(=O)c4cc(C(F)(F)F)cc(C(F)(F)F)c4)sc3c2)ccn1,growth at 100 µM,[1],-13%
same,growth at 0.1 µM,[2],96%
same,growth at 0.1 µM,A498,67%
same,growth at 1 µM,786-0 [3],91%
same,growth at 0.01 µM,[4],111%
same,growth at 0.01 µM,A549 [5],92%
same,growth at 0.1 µM,NCI-H522,109%
same,growth at 0.1 µM,[6],94%
same,GI50,KM12,2.7 µM
same,LC50,KM12,92.7 µM
same,TGI,KM12,11 µM
same,growth at 1 µM,Malme-3M,80%
same,growth at 0.1 µM,[7],86%
same,GI50,786-0 [8],2.55 µM
same,LC50,786-0 [8],45.2 µM
same,TGI,786-0 [8],8.07 µM
same,"activity at 5 min, 10 µM",CYP2C19,10.3%
same,growth at 0.01 µM,K562,103%
same,growth at 0.01 µM,[9],95%
same,growth at 0.1 µM,MDA-MB-468 [10],96%
same,growth at 100 µM,ACHN,-82%
same,growth at 100 µM,CCRF-CEM,25%
same,growth at 1 µM,HT-29,100%
same,growth at 100 µM,[11],-28%
same,growth at 0.1 µM,A549 [12],101%
same,GI50,[13],2.61 µM
same,LC50,[13],> 100 µM
same,TGI,[13],12.4 µM
same,growth at 0.01 µM,MDA-MB-468 [14],92%
same,GI50,[15],6.63 µM
same,TGI,[15],24.7 µM
same,CC50,[15],79.4 µM
same,GI50,SK-MEL-5,1.68 µM
same,TGI,SK-MEL-5,3.63 µM
same,CC50,SK-MEL-5,7.87 µM
same,growth at 0.01 µM,[16],89%
same,growth at 1 µM,NCI-H226,101%
same,growth at 0.1 µM,[17],103%
same,GI50,[18],2.53 µM
same,LC50,[18],> 100 µM
same,TGI,[18],12.8 µM
same,growth at 1 µM,MDA-MB-231,114%
same,growth at 0.1 µM,T47D,88%
same,growth at 1 µM,[19],80%
same,GI50,[20],2.66 µM
same,LC50 (concentration killing 50% of cells),[20],> 100 µM
same,TGI,[20],17 µM
same,growth at 0.1 µM,[21],97%
same,growth at 0.1 µM,[22],87%
same,GI50,[23],1.68 µM
same,LC50,[23],> 100 µM
same,TGI,[23],7.21 µM
